In patent publication US9090600B2, “Fungicidal 4-substituted-3-{phenyl[(heterocyclylmethoxy)imino]methyl}-1,2,4-oxadizol-5(4H)-one derivatives” (BAYER INTELLECTUAL PROPERTY GMBH, priority 2011, dated 2015):
Marks after values point to notes of the source that are not given here.

Columns and labels:
[1] = pH 2.7
Phytophthora infestans = type: in vivo; conditions: tomato plants, spray, 500 ppm, grading 5 days after contamination

For `Cn1c(/C(=N\OCc2cccc(NC(=O)OCCc3ccccc3)n2)c2cccc(F)c2)noc1=O` [Example 297], the LogP [1] was 4.26 [a] and the Eff. % (Phytophthora infestans) was 95%.

In the case of `CC(OCC1CC1)C(=O)Nc1cccc(CO/N=C(/c2ccccc2)c2noc(=O)n2C)n1` (racemic) [Example 390], the LogP [1] was 3.78 [a] and the Eff. % (Phytophthora infestans) was 100%.

For `CC(C)C(=O)Nc1cccc(CO/N=C(/c2ccccc2)c2noc(=O)n2C)n1` [Example 177], the LogP [1] was 3.11 [a] and the Eff. % (Phytophthora infestans) was 100%.

With `Cn1c(/C(=N\OCc2cccc(NC(=O)C(C)(C)C)n2)c2cccc(F)c2)noc1=O` [Example 139] the LogP [1] was 3.61 [a] and the Eff. % (Phytophthora infestans) was 100%.

For `Cn1c(/C(=N\OCc2csc(NC(=O)OCC(C)(C)C)n2)c2ccccc2)noc1=O` [Example 72], the LogP [1] was 4.01 [a] and the Eff. % (Phytophthora infestans) was 97%.

With `CCC(C)CCOC(=O)Nc1cccc(CO/N=C(/c2ccccc2)c2noc(=O)n2C)n1` (stereo not shown) [Example 56] the LogP [1] was 4.78 [a] and the Eff. % (Phytophthora infestans) was 100%.

For `Cn1c(C(=NOCc2csc(NC(=O)c3cc(F)cc(F)c3)n2)c2ccccc2)noc1=O` [Example 263], the LogP [1] was 3.8 [a] and the Eff. % (Phytophthora infestans) was 78%.

With `Cn1c(C(=NOCc2cccc(NC(=O)OC(C)(C)C)n2)c2ccc(F)cc2)noc1=O` [Example 246] the LogP [1] was 4.06 [a] and the Eff. % (Phytophthora infestans) was 100%.

In the case of `COc1ccc(CC(=O)Nc2cccc(CO/N=C(/c3cccc(OC)c3)c3noc(=O)n3C)n2)cc1` [Example 101], the LogP [1] was 3.51 [a] and the Eff. % (Phytophthora infestans) was 97%.

For `C=CC(=O)Nc1cccc(CO/N=C(/c2ccccc2)c2noc(=O)n2C)n1` [Example 304], the LogP [1] was 2.77 [a] and the Eff. % (Phytophthora infestans) was 83%.

With `Cn1c(/C(=N\OCc2cccc(NC(=O)CC3CC4CCC3C4)n2)c2ccccc2)noc1=O` (stereo not shown) [Example 78] the LogP [1] was 4.39 [a] and the Eff. % (Phytophthora infestans) was 100%.

For `CC(Oc1cccc(Br)c1)C(=O)Nc1nc(CO/N=C(/c2ccccc2)c2noc(=O)n2C)cs1` (stereo not shown) [Example 155], the LogP [1] was 4.17 [a] and the Eff. % (Phytophthora infestans) was 92%.

With `COc1cccc(/C(=N/OCc2cccc(NC(=O)OC3CCCCC3)n2)c2noc(=O)n2C)c1` [Example 112] the LogP [1] was 4.49 [a] and the Eff. % (Phytophthora infestans) was 73%.

With `CCCCOC(C)C(=O)Nc1cccc(CO/N=C(/c2ccccc2)c2noc(=O)n2C)n1` (stereo not shown) [Example 93] the LogP [1] was 4.3 [a] and the Eff. % (Phytophthora infestans) was 99%.

In the case of `Cn1c(/C(=N\OCc2cccc(NC(=O)OCC(C)(C)C)n2)c2ccccc2)noc1=O` [Example 372], the LogP [1] was 4.36 [a] and the Eff. % (Phytophthora infestans) was 100%.

With `CCCCOC(=O)Nc1cccc(CO/N=C(/c2cccc(OC)c2)c2noc(=O)n2C)n1` [Example 361] the LogP [1] was 4.06 [a] and the Eff. % (Phytophthora infestans) was 90%.

For `CCn1c(/C(=N\OCc2cccc(NC(=O)CCc3ccccc3)n2)c2ccccc2)noc1=O` [Example 403], the LogP [1] was 4.01 [a] and the Eff. % (Phytophthora infestans) was 100%.

With `Cc1cccc(CCOC(=O)Nc2cccc(CO/N=C(/c3ccccc3)c3noc(=O)n3C)n2)c1` [Example 210] the LogP [1] was 4.53 [a] and the Eff. % (Phytophthora infestans) was 75%.

For `Cn1c(/C(=N\OCc2cccc(NC(=O)C3(F)CC3)n2)c2ccccc2)noc1=O` [Example 309], the LogP [1] was 3.31 [a] and the Eff. % (Phytophthora infestans) was 100%.

For `Cn1c(/C(=N\OCc2cccc(NC(=O)c3ccco3)n2)c2ccccc2)noc1=O` [Example 134], the LogP [1] was 3.13 [a] and the Eff. % (Phytophthora infestans) was 99%.

In the case of `CCCCC(=O)Nc1cccc(CO/N=C(/c2ccccc2)c2noc(=O)n2CC)n1` [Example 176], the LogP [1] was 3.76 [a] and the Eff. % (Phytophthora infestans) was 100%.

With `CC(CC1CCCCC1)Nc1cccc(CO/N=C(/c2ccccc2)c2noc(=O)n2C)n1` (stereo not shown) [Example 236] the LogP [1] was 5.14 [a] and the Eff. % (Phytophthora infestans) was 100%.

With `Cn1c(/C(=N\OCc2cccc(NC(=O)Cc3ccc4ccccc4c3)n2)c2ccccc2)noc1=O` [Example 381] the LogP [1] was 4.12 [a] and the Eff. % (Phytophthora infestans) was 75%.

For `Cn1c(/C(=N\OCc2cccc(NC(=O)Cc3ccccc3Cl)n2)c2ccccc2)noc1=O` [Example 29], the LogP [1] was 3.76 [a] and the Eff. % (Phytophthora infestans) was 100%.

For `COc1ccc(C(=NOCc2cccc(NC(=O)OC(C)(C)C)n2)c2noc(=O)n2C)cc1` [Example 396], the LogP [1] was 3.96 [a] and the Eff. % (Phytophthora infestans) was 73%.

For `Cn1c(/C(=N\OCc2cccc(NC(=O)OCCc3ccc(F)cc3)n2)c2ccccc2)noc1=O` [Example 89], the LogP [1] was 4.19 [a] and the Eff. % (Phytophthora infestans) was 99%.

For `Cn1c(/C(=N\OCc2cccc(NC(=O)C(F)(F)C(F)(F)C(F)(F)F)n2)c2ccccc2)noc1=O` [Example 348], the LogP [1] was 4.17 [a] and the Eff. % (Phytophthora infestans) was 100%.

For `CC(C)CC(C)OC(=O)Nc1cccc(CO/N=C(/c2ccc(F)cc2)c2noc(=O)n2C)n1` (racemic) [Example 383], the LogP [1] was 4.77 [a] and the Eff. % (Phytophthora infestans) was 70%.

For `Cn1c(/C(=N\OCc2csc(NC(=O)c3cccc(I)c3)n2)c2ccccc2)noc1=O` [Example 143], the LogP [1] was 4.19 [a] and the Eff. % (Phytophthora infestans) was 75%.

With `Cn1c(/C(=N\OCc2cccc(NC(=O)c3ccccc3Cl)n2)c2ccccc2)noc1=O` [Example 178] the LogP [1] was 3.64 [a] and the Eff. % (Phytophthora infestans) was 99%.

With `Cn1c(/C(=N\OCc2cccc(NC(=O)CC(F)(F)F)n2)c2ccccc2)noc1=O` [Example 237] the LogP [1] was 3.19 [a] and the Eff. % (Phytophthora infestans) was 97%.

For `CCCCCC(C)OC(=O)Nc1cccc(CO/N=C(/c2ccccc2)c2noc(=O)n2C)n1` (stereo not shown) [Example 285], the LogP [1] was 5.19 [a] and the Eff. % (Phytophthora infestans) was 88%.

In the case of `CCCCC(C)OC(=O)Nc1cccc(CO/N=C(/c2ccccc2)c2noc(=O)n2C)n1` (stereo not shown) [Example 200], the LogP [1] was 4.78 [a] and the Eff. % (Phytophthora infestans) was 98%.

For `COC(=O)C(C)OC(=O)Nc1cccc(CO/N=C(/c2ccccc2)c2noc(=O)n2C)n1` (stereo not shown) [Example 119], the LogP [1] was 3.17 [a] and the Eff. % (Phytophthora infestans) was 97%.

For `CC(C)CCOC(=O)Nc1nc(CO/N=C(/c2ccccc2)c2noc(=O)n2C)cs1` [Example 47], the LogP [1] was 4.06 [a] and the Eff. % (Phytophthora infestans) was 100%.

For `CCCCCOC(=O)Nc1cccc(CO/N=C(/c2ccc(F)cc2)c2noc(=O)n2C)n1` [Example 161], the LogP [1] was 4.51 [a] and the Eff. % (Phytophthora infestans) was 92%.

For `CC(=O)Nc1cccc(CO/N=C(/c2ccccc2)c2noc(=O)n2C)n1` [Example 52], the LogP [1] was 2.44 [a] and the Eff. % (Phytophthora infestans) was 100%.

In the case of `Cn1c(/C(=N\OCc2csc(NC(=O)OCc3ccccc3)n2)c2ccccc2)noc1=O` [Example 239], the LogP [1] was 3.73 [a] and the Eff. % (Phytophthora infestans) was 84%.

For `CCn1c(/C(=N\OCc2cccc(NC(=O)OCc3ccccc3)n2)c2ccccc2)noc1=O` [Example 201], the LogP [1] was 4.24 [a] and the Eff. % (Phytophthora infestans) was 100%.

For `CCCC(=O)Nc1nc(CON=C(c2ccccc2)c2noc(=O)n2C)cs1` [Example 271], the LogP [1] was 3.02 [a] and the Eff. % (Phytophthora infestans) was 80%.

With `Cn1c(/C(=N\OCc2cccc(NC(=O)c3ccccc3Br)n2)c2ccccc2)noc1=O` [Example 243] the LogP [1] was 3.67 [a] and the Eff. % (Phytophthora infestans) was 99%.

With `Cn1c(/C(=N\OCc2csc(NC(=O)Oc3ccccc3)n2)c2ccccc2)noc1=O` [Example 75] the LogP [1] was 3.48 [a] and the Eff. % (Phytophthora infestans) was 90%.

For `Cn1c(/C(=N\OCc2csc(NC(=O)c3ccccc3F)n2)c2ccccc2)noc1=O` [Example 27], the LogP [1] was 3.44 [a] and the Eff. % (Phytophthora infestans) was 100%.

In the case of `Cn1c(/C(=N\OCc2cccc(NC(=O)OCCC#N)n2)c2ccccc2)noc1=O` [Example 288], the LogP [1] was 2.78 [a] and the Eff. % (Phytophthora infestans) was 97%.

For `Cn1c(/C(=N\OCc2cccc(NC(=O)CCc3ccc(Cl)cc3)n2)c2ccccc2)noc1=O` [Example 346], the LogP [1] was 4.17 [a] and the Eff. % (Phytophthora infestans) was 97%.

For `Cn1c(C(=NOCc2cccc(NC(=O)Cc3cccs3)n2)c2ccccc2)noc1=O` [Example 264], the LogP [1] was 3.42 [a] and the Eff. % (Phytophthora infestans) was 94%.

With `C=CCCOC(=O)Nc1nc(CO/N=C(/c2ccccc2)c2noc(=O)n2C)cs1` [Example 394] the LogP [1] was 3.44 [a] and the Eff. % (Phytophthora infestans) was 90%.

With `CCCC(C)COC(=O)Nc1cccc(CO/N=C(/c2ccccc2)c2noc(=O)n2C)n1` (stereo not shown) [Example 337] the LogP [1] was 4.83 [a] and the Eff. % (Phytophthora infestans) was 99%.

In the case of `Cn1c(/C(=N\OCc2cccc(NC(=O)OC3CCCC3)n2)c2ccccc2)noc1=O` [Example 110], the LogP [1] was 4.09 [a] and the Eff. % (Phytophthora infestans) was 98%.

For `CCC(C)(C)C(=O)Nc1cccc(CO/N=C(/c2ccccc2)c2noc(=O)n2C)n1` [Example 221], the LogP [1] was 3.8 [a] and the Eff. % (Phytophthora infestans) was 100%.

In the case of `CC(C)=CCC(=O)Nc1cccc(CO/N=C(/c2ccccc2)c2noc(=O)n2C)n1` [Example 153], the LogP [1] was 3.59 [a] and the Eff. % (Phytophthora infestans) was 100%.

With `Cc1ccccc1CCOC(=O)Nc1cccc(CO/N=C(/c2ccccc2)c2noc(=O)n2C)n1` [Example 133] the LogP [1] was 4.51 [a] and the Eff. % (Phytophthora infestans) was 88%.

With `Cn1c(C(=NOCc2csc(NC(=O)c3ccc(F)cc3)n2)c2ccccc2)noc1=O` [Example 251] the LogP [1] was 3.55 [a] and the Eff. % (Phytophthora infestans) was 98%.

In the case of `CCCCCCCCCC(=O)Nc1cccc(CO/N=C(/c2ccccc2)c2noc(=O)n2C)n1` [Example 303], the LogP [1] was 5.54 [a] and the Eff. % (Phytophthora infestans) was 98%.

With `Cc1cccc(/C(=N/OCc2cccc(NC(=O)C(C)(C)C)n2)c2noc(=O)n2C)c1` [Example 387] the LogP [1] was 3.85 [a] and the Eff. % (Phytophthora infestans) was 100%.

For `CCC(CC)COC(=O)Nc1cccc(CO/N=C(/c2ccccc2)c2noc(=O)n2C)n1` [Example 192], the LogP [1] was 4.78 [a] and the Eff. % (Phytophthora infestans) was 100%.

In the case of `CCCCC(=O)Nc1cccc(CO/N=C(/c2cccc(OC)c2)c2noc(=O)n2C)n1` [Example 358], the LogP [1] was 3.55 [a] and the Eff. % (Phytophthora infestans) was 100%.

With `CC(COC(=O)Nc1cccc(CO/N=C(/c2ccccc2)c2noc(=O)n2C)n1)c1ccccc1` (stereo not shown) [Example 145] the LogP [1] was 4.46 [a] and the Eff. % (Phytophthora infestans) was 83%.

With `CSCCC(=O)Nc1cccc(CO/N=C(/c2ccccc2)c2noc(=O)n2C)n1` [Example 188] the LogP [1] was 3.09 [a] and the Eff. % (Phytophthora infestans) was 99%.

For `Cn1c(/C(=N\OCc2cccc(NC(=O)C3(c4ccccc4)CC3)n2)c2ccccc2)noc1=O` [Example 165], the LogP [1] was 4.43 [a] and the Eff. % (Phytophthora infestans) was 70%.

With `Cc1ccc(CC(=O)Nc2cccc(CO/N=C(/c3ccccc3)c3noc(=O)n3C)n2)cc1` [Example 375] the LogP [1] was 3.85 [a] and the Eff. % (Phytophthora infestans) was 97%.

For `Cn1c(/C(=N\OCc2cccc(NC(=O)C3CC4C=CC3C4)n2)c2ccccc2)noc1=O` (stereo not shown) [Example 323], the LogP [1] was 3.68 [a] and the Eff. % (Phytophthora infestans) was 100%.
